In patent US10919885B2, “Compounds and uses thereof” (Yumanity Therapeutics, Inc., priority 2018, dated 2021):
Where a name gives a salt, the structure may show the parent alone.

Columns and labels:
human SCD1 = human SCD1 (Homo sapiens (Human), UniProt O00767); assay: Yeast growth assay, strain expressing human SCD1 as the sole desaturase (reduced growth as surrogate for SCD inhibition); assay type: cell-based; settings: yeast with OLE1 deleted expressing human SCD1 from a plasmid; growth read as OD600 after 40 h at 30° C.; top drug concentration 33.3 μM
Method in brief: (§1)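 Yeast lacking OLE1 depend on plasmid-borne human SCD1 or SCD5 and are tested in SD-Ura medium without oleic/palmitoleic acid or Tween.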

human SCD5 = human SCD5 (Homo sapiens (Human), UniProt Q86SK9); assay: Yeast growth assay, strain expressing human SCD5 as the sole desaturase (reduced growth as surrogate for SCD inhibition); assay type: cell-based; settings: yeast with OLE1 deleted expressing human SCD5 from a plasmid; growth read as OD600 after 40 h at 30° C.; top drug concentration 33.3 μM
Method in brief: as §1

Chain of human SCD1 (O00767 whole entry): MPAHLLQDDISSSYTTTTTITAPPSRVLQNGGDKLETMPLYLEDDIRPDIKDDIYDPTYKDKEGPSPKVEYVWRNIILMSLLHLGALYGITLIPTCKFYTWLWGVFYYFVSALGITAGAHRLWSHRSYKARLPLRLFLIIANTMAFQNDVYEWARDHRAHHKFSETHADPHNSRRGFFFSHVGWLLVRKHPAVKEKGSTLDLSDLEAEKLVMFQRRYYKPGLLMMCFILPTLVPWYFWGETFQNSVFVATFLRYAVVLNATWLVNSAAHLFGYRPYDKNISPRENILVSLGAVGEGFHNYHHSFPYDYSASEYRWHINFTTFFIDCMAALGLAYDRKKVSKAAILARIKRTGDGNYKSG
Chain of human SCD5 (Q86SK9 whole entry): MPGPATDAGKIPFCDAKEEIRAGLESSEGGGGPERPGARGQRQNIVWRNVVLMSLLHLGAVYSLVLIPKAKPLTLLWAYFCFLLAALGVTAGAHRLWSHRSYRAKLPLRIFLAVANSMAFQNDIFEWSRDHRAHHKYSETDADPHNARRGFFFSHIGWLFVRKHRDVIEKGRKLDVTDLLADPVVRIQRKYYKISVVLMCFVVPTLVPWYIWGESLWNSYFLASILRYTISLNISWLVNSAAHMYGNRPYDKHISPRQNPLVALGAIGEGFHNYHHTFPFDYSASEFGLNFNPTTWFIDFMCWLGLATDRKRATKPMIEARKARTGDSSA

IC50 (human SCD1)	IC50 (human SCD5)	Structure (SMILES)
> 45 µM	> 45 µM	CN1CCC(C2CCCN2C(=O)c2cc(-c3ccc4c(c3)OCO4)on2)CC1 (stereo not shown) [Compound 424]
> 45 µM	> 45 µM	COc1cccnc1C1CCCN1C(=O)c1cc(-c2ccc3c(c2)OCO3)on1 (stereo not shown) [Compound 437]
> 45 µM	> 45 µM	O=C(c1ccncc1)N1CCN(C(=O)c2cc(-c3ccc4c(c3)OCO4)on2)CC1 [Compound 276]
> 45 µM	> 45 µM	Cc1cnoc1C1CCCN1C(=O)c1cc(-c2ccc3c(c2)OCO3)on1 (stereo not shown) [Compound 439]
29.4 µM	> 45 µM	Cn1ccc(-c2cc(C(=O)N3CCC[C@H]3c3ccccc3)no2)cc1=O [Compound 428]
4.19 µM	5.28 µM	CNC(=O)c1cc(C(=O)N2CCC(c3ccccc3)C2)no1 (stereo not shown) [Compound 347]
15 µM	2.89 µM	COc1ccc(C2CCCN2C(=O)c2cc(-c3ccc4nc(N(C)C)oc4c3)on2)cc1 (stereo not shown) [Compound 399]
> 45 µM	> 45 µM	N#Cc1cccc(-c2cc(C(=O)N3CCC(c4ccccc4)CC3)no2)c1 [Compound 317]
> 45 µM	> 45 µM	O=C(c1cc(-c2ccco2)on1)N1CC2(CCCC2)C1 [Compound 245]
> 45 µM	2.92 µM	O=C(c1cc(-c2ccc3c(c2)OCO3)on1)N1CCC1c1cccc(F)c1 (stereo not shown) [Compound 220, [5-(1,3-benzodioxol-5-yl)isoxazol-3-yl]-[2-(3-fluorophenyl)azetidin-1-yl]methanone]
> 45 µM	8.87 µM	O=C(c1cc(-c2ccccc2)on1)N1CC2(CC(c3ccccc3)C2)C1 [Compound 227, (6-phenyl-2-azaspiro[3.3]heptan-2-yl)-(5-phenylisoxazol-3-yl)methanone]
> 45 µM	> 45 µM	O=C(c1cc(-c2ccco2)on1)N1CC(F)C1 [Compound 244]
> 45 µM	> 45 µM	O=C(c1cc(-c2ccc3c(c2)OCO3)on1)N1CCCC1c1cccnn1 (stereo not shown) [Compound 391]
> 45 µM	> 45 µM	COc1ccccc1-c1cc(C(=O)N2CCC(c3ccccc3)CC2)no1 [Compound 320]
> 45 µM	> 45 µM	COc1ccc(C2CCCN2C(=O)c2cc(-c3ccc(C(F)(F)C(F)(F)F)cc3)on2)cc1 (stereo not shown) [Compound 392]
> 45 µM	> 45 µM	O=C(NC1CCN(c2ccccc2)CC1)c1cc(-c2ccco2)on1 [Compound 286]
> 45 µM	> 45 µM	Cc1cc(C2CCCN2C(=O)c2cc(-c3ccc4c(c3)OCO4)on2)on1 (stereo not shown) [Compound 353]
> 45 µM	> 45 µM	CN1CCN(c2cc(C(=O)Nc3cnn(Cc4ccccc4)c3)no2)CC1 [Compound 183]
> 45 µM	> 45 µM	O=C(Nc1cc(-c2ccco2)on1)c1cnn(Cc2ccc(Cl)c(Cl)c2)c1 [Compound 59]
> 45 µM	> 45 µM	Cn1nccc1C1CCCN1C(=O)c1cc(-c2ccc3c(c2)OCO3)on1 (stereo not shown) [Compound 417]
> 45 µM	> 45 µM	O=C(Nc1ccnc(Oc2ccccc2)c1)c1cc(-c2ccccc2)on1 [Compound 312]
> 45 µM	> 45 µM	O=C(Nc1cnn(Cc2cnccc2C(F)(F)F)c1)c1cc(-c2ccncc2)on1 [Compound 202]
0.866 µM	1.92 µM	O=C(c1cc(-c2ccc3c(c2)OCO3)on1)N1CC(c2cccc(F)c2)C1 [Compound 239, (5-(benzo[d][1,3]dioxol-5-yl)isoxazol-3-yl)(3-(3-fluorophenyl)azetidin-1-yl)methanone]
> 45 µM	> 45 µM	O=C(c1cc(-c2ccc3c(c2)OCO3)on1)N1CCCC1c1ncccn1 (stereo not shown) [Compound 431]

More lines, now with the values behind:

Structure (SMILES)	IC50 (human SCD1)	IC50 (human SCD5)
CN(C)CC(c1ccccc1)n1cc(NC(=O)c2cc(-c3ccccc3)on2)cn1 (stereo not shown) [Compound 113]	> 45 µM	> 45 µM
O=C(c1cc(-c2ccncc2)on1)N1CCC(c2ccccc2)CC1 [Compound 313, (4-phenylpiperidin-1-yl)(5-(pyridin-4-yl)isoxazol-3-yl)methanone, trifluoroacetic acid]	0.41 µM	1.54 µM
O=C(Nc1cnn(Cc2cccc(F)c2)c1)c1cc(-c2cnccn2)on1 [Compound 45]	23.1 µM	> 45 µM
COc1ccncc1Cn1cc(NC(=O)c2cc(-c3ccccc3F)on2)cn1 [Compound 173]	> 45 µM	> 45 µM
Cc1csc(-c2cc(C(=O)Nc3cnn(Cc4ccccc4)c3)no2)n1 [Compound 143]	> 45 µM	> 45 µM
Cc1nnc(-c2cc(C(=O)Nc3cnn(Cc4cccc(F)c4)c3)no2)o1 [Compound 179]	> 45 µM	> 45 µM
Cc1nn(Cc2ccc(Cl)c(Cl)c2)c(C)c1NC(=O)c1cc(-c2ccco2)on1 [Compound 3, N-(1-(3,4-dichlorobenzyl)-3,5-dimethyl-1H-pyrazol-4-yl)-5-(furan-2-yl)isoxazole-3-carboxamide]	> 45 µM	7.15 µM
COc1cccc(N2CCN(C(=O)c3cc(-c4ccc5c(c4)OCO5)on3)CC2)c1 [Compound 271, (5-(benzo[d][1,3]dioxol-5-yl)isoxazol-3-yl)(4-(3-methoxyphenyl)piperazin-1-yl)methanone]	> 45 µM	4.71 µM
O=C(Nc1cnn(Cc2cccc(F)c2)c1)c1cc(CO)on1 [Compound 191]	> 45 µM	> 45 µM
C=C(C)c1cc(C(=O)Nc2cnn(Cc3ccccc3)c2)on1 [Compound 153]	9 µM	7 µM
N#Cc1nn(Cc2ccccc2)cc1NC(=O)c1cc(-c2ccccc2)on1 [Compound 68]	> 45 µM	> 45 µM
C#Cc1cc(C(=O)Nc2cnn(Cc3cccc(F)c3)c2)no1 [Compound 154, 5-ethynyl-N-(1-(3-fluorobenzyl)-1H-pyrazol-4-yl)isoxazole-3-carboxamide]	1.6 µM	5.2 µM
C[S+]([O-])CC(c1ccccc1)n1cc(NC(=O)c2cc(-c3ccccc3)on2)cn1 (stereo not shown) [Compound 78]	> 45 µM	> 45 µM
O=C(c1cc(-c2cccnc2)on1)N1CCC(c2ccccc2)CC1 [Compound 315, (4-phenylpiperidin-1-yl)(5-(pyridin-3-yl)isoxazol-3-yl)methanone, trifluoroacetic acid salt]	3.84 µM	1.06 µM
O=C(c1cc(-c2ccc3c(c2)OCO3)on1)N1CCC(c2ccccc2)CC1 [Compound 275, [5-(1,3-benzodioxol-5-yl)isoxazol-3-yl]-(4-phenyl-1-piperidyl)methanone]	> 45 µM	1.13 µM
O=C(Nc1cnn(Cc2ccccc2)c1)c1cc(-c2cnsc2)on1 [Compound 146]	11 µM	> 45 µM
O=C(Nc1cnn(Cc2ncccc2C(F)(F)F)c1)c1cc(-c2ccccc2F)on1 [Compound 196]	> 45 µM	> 45 µM
O=C(Nc1cnn(Cc2ccccc2)c1)c1cc(-c2cccc3cn(C4COC4)nc23)on1 [Compound 95]	> 45 µM	> 45 µM
Cc1cnc(-c2cc(C(=O)Nc3cnn(Cc4ccccc4)c3)no2)s1 [Compound 142]	> 45 µM	> 45 µM
O=C(Nc1cnn(Cc2ccccc2Cl)c1)c1cc(-c2cccc3cnn(C4COC4)c23)on1 [Compound 93]	> 45 µM	> 45 µM
